Test results: US7550492B2, “Benzo[1,2,5]thiadiazole compounds” (Janssen Pharmaceutica N.V., priority 2003, dated 2009)

What was measured:
[1] = molecular target: T1, CCK2 receptor (Cavia porcellus, UniProt H0VZC5); experiment: Guinea-Pig Gastric Corpeal Muscle Assay (isolated muscle strip, pentagastrin-induced contraction); type: cell-based; conditions: CCK1 receptors blocked
T1 construct: strips of muscle were dissected and suspended in isolated tissue organ baths; from tissue; host or cells: guinea-pig gastric corpeal muscle strips
T1 sequence (H0VZC5 1-426): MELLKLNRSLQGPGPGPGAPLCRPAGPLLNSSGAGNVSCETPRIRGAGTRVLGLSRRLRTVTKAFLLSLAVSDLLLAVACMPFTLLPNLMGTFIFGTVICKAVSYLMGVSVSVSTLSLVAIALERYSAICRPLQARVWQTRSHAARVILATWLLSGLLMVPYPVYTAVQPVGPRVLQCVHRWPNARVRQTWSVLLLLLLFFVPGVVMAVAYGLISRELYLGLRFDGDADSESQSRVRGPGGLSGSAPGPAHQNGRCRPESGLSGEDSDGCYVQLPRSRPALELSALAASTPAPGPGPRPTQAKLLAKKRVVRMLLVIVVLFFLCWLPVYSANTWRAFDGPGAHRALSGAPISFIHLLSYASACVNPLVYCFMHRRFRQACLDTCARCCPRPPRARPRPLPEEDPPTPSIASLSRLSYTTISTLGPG
Description: Guinea-Pig Gastric Corpeal Muscle Assay
CCK2 receptor-mediated muscle contraction was measured in an isolated muscle-strip assay of guinea-pig gastric corpeal muscle according to the methods described by Roberts et al. (S. P. Roberts, E. A. Harper, G. F. Watt, V. P. Gerskowitch, R. A. Hull, N. P. Shankley, and J. W. Black, Br. J. Pharmacol., 1996, 118(7):1779-1789). In brief, strips of muscle were dissected and suspended in isolated tissue organ baths for isotonic muscle contraction recording. The baths, containing Krebs-Henseleit solution, were maintained at 24° C. and gassed continuously with 95% O2 and 5% CO2. CCK1 receptors known to be present in this assay were blocked using a selective concentration of a suitable CCK1 receptor antagonist (e.g. 2-NAP). The effectiveness of the test compounds was assessed by measuring their effect on contractile concentration-response curves obtained using a well-characterized surrogate for the hormone gastrin (pentagastrin).

[2] = molecular target: T2, CCK2 receptor (Homo sapiens, UniProt P32239); experiment: Binding Assay: competition with [125I]-BH-CCK-8S in HEKZFP cell membranes; conditions: 60 min at 21±3° C., Cheng-Prusoff
T2 construct: Membranes were prepared from the HEKZFP cells after induction; endogenous in cells
T2 sequence (P32239 1-447): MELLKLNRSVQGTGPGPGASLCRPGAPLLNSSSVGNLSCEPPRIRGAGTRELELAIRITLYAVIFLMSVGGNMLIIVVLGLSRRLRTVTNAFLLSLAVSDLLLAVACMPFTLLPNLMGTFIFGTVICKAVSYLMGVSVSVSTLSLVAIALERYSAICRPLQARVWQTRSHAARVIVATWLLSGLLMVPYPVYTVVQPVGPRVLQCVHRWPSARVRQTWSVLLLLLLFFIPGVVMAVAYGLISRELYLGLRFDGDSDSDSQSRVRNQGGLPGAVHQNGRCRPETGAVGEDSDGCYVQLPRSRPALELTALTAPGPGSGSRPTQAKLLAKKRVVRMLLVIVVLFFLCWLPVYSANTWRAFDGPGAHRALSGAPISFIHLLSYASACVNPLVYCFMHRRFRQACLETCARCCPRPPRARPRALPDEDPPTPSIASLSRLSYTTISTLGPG
Description: Zinc Finger Proteins (ZFP) specific for the CCK2R gene were identified by Sangamo Biosciences. The ZFP domain was fused with the herpes simplex virus VP16 activation domain, and the fusion protein was subsequently cloned into the pcDNA3 mammalian expression vector (Invitrogen, San Diego, Calif.). Tet-inducible cell lines expressing the coding region from the ZFP vector were created using the T-REx-293™ cell line (Invitrogen). After 2 weeks of selection in culture medium containing […] Zeocin (Invitrogen), sixty drug-resistant stable clones were isolated and analyzed for ZFP expression as well as CCK2R induction upon addition of doxycycline to the culture medium. The cell line with the most appropriate CCK2R ZFP construct was used in all further assays and was termed the HEKZFP cell line.
HEKZFP cells were grown in DMEM supplemented with L-glutamine (2 mM), penicillin (50 units/mL) and streptomycin (50 μg/mL) and 10% FBS (v/v). HEKZFP cells were treated with […] doxycycline (Sigma-Aldrich, MO; USA) for 2 days to de-repress the tet-regulated expression of the CCK2 receptor selective zinc finger proteins and were harvested using a rubber cell scraper.
Membranes were prepared from the HEKZFP cells after induction. Frozen cell pellets (−40° C.) were thawed in 14 mL of buffer A (10 mM HEPES, 130 mM NaCl, 4.7 mM KCl, 5 mM MgCl, 1 mM EGTA and 15.4 mg/100 mL bacitracin at pH 7.2), adapted from E. A. Harper et al. (Br. J. Pharmacol. (1996) 118(7):1717-1726). The thawed pellets were homogenized using a Polytron PT-10 (7×1 s). The homogenates were centrifuged for 5 min at 1500 rpm (600×g), and the resulting pellets were discarded. The supernatants were re-centrifuged in order to collect the receptor-membrane pellets (25 min 15,000 rpm; 39,000×g), which were re-suspended in buffer A.
All assays were conducted in 96-well plate (GF/B millipore filter plates) using buffer A. For the optimal cell number determination experiments, cells in concentrations ranging from 2.5×10^5 to 12.5×10^5 cells/well were incubated with 20 pM [^125I]-BH-CCK-8S (50 μL 60 pM) solution) in a total volume of 150 μL. Total binding of [^125I]-BH-CCK-8S was determined in the presence of 15 μL of buffer A. Non-specific binding of [^125I]-BH-CCK-8S was determined in the presence of 15 μL of 10 μM YF476, a CCK-2 receptor selective antagonist that is structurally unrelated to the radioligand [^125I]-BH-CCK-8S. The assay preparation was incubated for 1 h at 21±3° C., and then the assay was terminated by rapid filtration of the preparation under reduced pressure. The loaded filters were washed three times using undiluted PBS (100 μL), and then 100 μL of scintillation fluid was added to the filter plate. Bound radioactivity was determined using a Topcount (Packard BioScience, Meriden, Conn.) with a count time of 1 min. From these experiments a cell concentration of 1 pellet in 15 mL of buffer was chosen for use in other assays. To validate the radioligand concentration and incubation time for the assay, saturation and kinetic binding studies were also conducted (see M. F. Morton, The Pharmacological Characterization of Cholecystokinin Receptors in the Human Gastrointestinal Tract. PhD Thesis, University of London, 2000). […] The assay was then terminated according to the procedure outlined above.
The pKi values were determined using the equation of Y.-C. Cheng and W. H. Prusoff (Biochem. Pharmacol., 1973, 22(23):3099-3108):
To circumvent problems associated with computer-assisted data analysis of compounds with low affinity, the data obtained in the current study were weighted according to a method described by Morton. In brief, 100% and 0% specific binding were defined independently using total binding and binding obtained in the presence of a high concentration of the reference antagonist, 2-NAP.

O=C(c1ccc(Br)cc1NS(=O)(=O)c1cccc2nsnc12)N1CCCCC1 [Example 5, Benzo[1,2,5]thiadiazole-4-sulfonic acid [5-bromo-2-(piperidine-1-carbonyl)-phenyl]-amide]
pK8 value ([1]; antagonism of pentagastrin concentration-response curves, 24° C.): 8.8
behaviour in the muscle contraction assay ([1]; pentagastrin concentration-response curves): competitive antagonist
pKi [2]: 7.6
